19 compounds from patent US9376442B2, “Methylpyrrolopyrimidinecarboxamides” (Takeda GmbH, priority 2009, dated 2016) can be followed below.

The target in the assay is T1, PDE5A1 (Homo sapiens, UniProt O76074).
T1 construct: from tissue; host or cells: human platelets from fresh donor blood (10,000 x g supernatant of sonicated lysate)
The assay can be described thus: Inhibition of type 5 phosphodiesterase (PDE5) activity, modified SPA test with human platelet lysate. The class given is biochemical. The following applies: 0.5 μM cGMP, read-out: PDE5A1 inhibitory values [measured as −log IC50 (mol/l)] (converted). As for the experimental part: Method for Measuring Inhibition of the Type 5 Phosphodiesterase (PDE5) Activity:
As a source for human PDE5, platelets are used. For that purpose, 150 ml fresh blood from human donors anticoagulated with citrate [final concentration 0.3% (w/v)] is centrifuged at 200 g for 10 min to obtain the so-called platelet-rich-plasma (PRP) as a supernatant. 1/10 volume of ACD solution (85 mM Na3-citrate, 111 mM D-glucose, 71 mM citric acid, pH 4.4) is added to 9/10 volume of PRP. After centrifugation (1,400 g, 10 min) the cell pellet is resuspended in 3 ml homogenization buffer (NaCl 140 mM, KCl 3.8 mM, EGTA (ethylene glycol tetraacetic acid) 1 mM, MgCl2 1 mM, Tris-HCl 20 mM, beta-mercaptoethanol 1 mM, pH 8.2) plus protease-inhibitor mix giving rise to the final concentrations of 0.5 mM Pefablock (Roche), 10 μM Leupeptin, 5 μM Trypsininhibitor, 2 mM Benzamidin and 10 μM Pepstatin A. The suspension is sonified and thereafter centrifuged for 15 min at 10,000 g. The resulting supernatant (platelet lysate) is used for enzymatic testings.
PDE5A1 activity is inhibited by the compounds of the present subject matter in a modified SPA (scintillation proximity assay) test, supplied by Amersham Biosciences (see procedural instructions “phosphodiesterase [3H]cAMP SPA enzyme assay, code TRKQ 7090”), carried out in 96-well microtitre plates (MTP's). The test volume is 100 μl and contains 20 mM Tris buffer (pH 7.4), 0.1 mg of BSA (bovine serum albumin)/ml, 5 mM Mg^2+, 1 μM motapizone, 10 nM PDE2 inhibitor 2-(3,4-dimethoxybenzyl)-7-[(1R,2R)-2-hydroxy-1-(2-phenylethyl)propyl]-5-methylimidazo[5,1-f][1,2,4]triazin-4(3H)-one, 0.5 μM cGMP (cyclic guanosine monophosphate) (including about 50,000 cpm of [3H]cGMP as a tracer), 1 μl of the respective compound dilution in dimethylsulfoxide (DMSO) and sufficient PDE5-containing platelet lysat (10,000×g supernatant, see above) to ensure that 10-20 wt % of the cGMP is converted under the said experimental conditions. […] After a preincubation of 5 min at 37° C., the reaction is started by adding the substrate (cGMP) and the assay is incubated for a further 15 min; after that, it is stopped by adding SPA beads (50 μl). In accordance with the manufacturer's instructions, the SPA beads had previously been resuspended in water, but are then diluted 1:3 (v/v) in water; the diluted solution also contains 3 mM […] (IBMX) to ensure a complete PDE activity stop. After the beads have been sedimented (>30 min), the MTP's are analyzed in commercially available luminescence detection devices. The corresponding IC50 values of the compounds for the inhibition of PDE activity are determined from the concentration-effect curves by means of non-linear regression.

As for `COCC(=O)N1CC[C@@H](NC(=O)c2c(C)[nH]c3c(-c4cc(F)ccc4OCC4CC4)ncnc23)[C@H](O)C1` (relative stereo) [Example E51, 4-[2-(Cyclopropylmethoxy)-5-fluorophenyl]-N-[(3R*,4R*)-3-hydroxy-1-(methoxyacetyl)piperidin-4-yl]-6-methyl-5H-pyrrolo[3,2-d]pyrimidine-7-carboxamide], the IC50 is 1 to 10 nM.
Regarding `COc1ccc(-c2ncnc3c(C(=O)N[C@@H]4CN(C(C)=O)C[C@H]4O)c(C)[nH]c23)c(OCC2CC2)c1` (relative stereo) [Example E63, N-[(3R*,4R*)-1-acetyl-4-hydroxypyrrolidin-3-yl]-4-[2-(cyclopropylmethoxy)-4-methoxyphenyl]-6-methyl-5H-pyrrolo[3,2-d]pyrimidine-7-carboxamide], the IC50 is less than 1 nM.
Consider `CCC(=O)N1C[C@@H](O)[C@H](NC(=O)c2c(C)[nH]c3c(-c4ccc(OC)cc4OCC4CC4)ncnc23)C1` (relative stereo) [Example E64, 4-[2-(Cyclopropylmethoxy)-4-methoxyphenyl]-N-[(3R*,4R*)-4-hydroxy-1-propionylpyrrolidin-3-yl]-6-methyl-5H-pyrrolo[3,2-d]pyrimidine-7-carboxamide], for which the IC50 was less than 1 nM.
As for `COCC(=O)N1C[C@@H](O)[C@H](NC(=O)c2c(C)[nH]c3c(-c4ccc(OC)cc4OCC4CC4)ncnc23)C1` (relative stereo) [Example E65, 4-[2-(Cyclopropylmethoxy)-4-methoxyphenyl]-N-[(3R*,4R*)-4-hydroxy-1-(methoxyacetyl)pyrrolidin-3-yl]-6-methyl-5H-pyrrolo[3,2-d]pyrimidine-7-carboxamide], the IC50 is less than 1 nM.
Regarding `COc1ccc(OCC2CC2)c(-c2ncnc3c(C(=O)N[C@@H]4CCN(C(C)=O)C[C@H]4O)c(C)[nH]c23)c1` (relative stereo) [Example E78, N-[(3R*,4R*)-1-acetyl-3-hydroxypiperidin-4-yl]-4-[2-(cyclopropylmethoxy)-5-methoxyphenyl]-6-methyl-5H-pyrrolo[3,2-d]pyrimidine-7-carboxamide], the IC50 was less than 1 nM.
In the case of `CCC(=O)N1CC[C@@H](NC(=O)c2c(C)[nH]c3c(-c4cc(OC)ccc4OCC4CC4)ncnc23)[C@H](O)C1` (relative stereo) [Example E79, 4-[2-(Cyclopropylmethoxy)-5-methoxyphenyl]-N-[(3R*,4R*)-3-hydroxy-1-propanoylpiperidin-4-yl]-6-methyl-5H-pyrrolo[3,2-d]pyrimidine-7-carboxamide], the IC50 was less than 1 nM.
As for `COCC(=O)N1CC[C@@H](NC(=O)c2c(C)[nH]c3c(-c4cc(OC)ccc4OCC4CC4)ncnc23)[C@H](O)C1` (relative stereo) [Example E80, 4-[2-(Cyclopropylmethoxy)-5-methoxyphenyl]-N-[(3R*,4R*)-3-hydroxy-1-(methoxyacetyl)piperidin-4-yl]-6-methyl-5H-pyrrolo[3,2-d]pyrimidine-7-carboxamide], the IC50 is 1 to 10 nM.
With `COc1cc(-c2ncnc3c(C(=O)N[C@@H]4CCN(C(C)=O)C[C@H]4O)c(C)[nH]c23)c(OCC2CC2)cc1F` (relative stereo) [Example E113, N-[(3R*,4R*)-1-Acetyl-3-hydroxypiperidin-4-yl]-4-[2-(cyclopropylmethoxy)-4-fluoro-5-methoxyphenyl]-6-methyl-5H-pyrrolo[3,2-d]pyrimidine-7-carboxamide], the IC50 is less than 1 nM.
Consider `CCC(=O)N1CC[C@@H](NC(=O)c2c(C)[nH]c3c(-c4cc(OC)c(F)cc4OCC4CC4)ncnc23)[C@H](O)C1` (relative stereo) [Example E114, 4-[2-(Cyclopropylmethoxy)-4-fluoro-5-methoxyphenyl]-N-[(3R*,4R*)-3-hydroxy-1-propionylpiperidin-4-yl]-6-methyl-5H-pyrrolo[3,2-d]pyrimidine-7-carboxamide], for which the IC50 is less than 1 nM.
For `COCC(=O)N1CC[C@@H](NC(=O)c2c(C)[nH]c3c(-c4cc(OC)c(F)cc4OCC4CC4)ncnc23)[C@H](O)C1` (relative stereo) [Example E115, 4-[2-(cyclopropylmethoxy)-4-fluoro-5-methoxyphenyl]-N-[(3R*,4R*)-3-hydroxy-1-(methoxyacetyl)piperidin-4-yl]-6-methyl-5H-pyrrolo[3,2-d]pyrimidine-7-carboxamide] the value was less than 1 nM; for `COc1cc(-c2ncnc3c(C(=O)N[C@H]4CN(C(C)=O)CC[C@@H]4O)c(C)[nH]c23)c(OCC2CC2)cc1F` (relative stereo) [Example E116, N-[(3S*,4S*)-1-Acetyl-4-hydroxypiperidin-3-yl]-4-[2-(cyclopropylmethoxy)-4-fluoro-5-methoxyphenyl]-6-methyl-5H-pyrrolo[3,2-d]pyrimidine-7-carboxamide], less than 1 nM.
The figure for `CCC(=O)N1CC[C@H](O)[C@@H](NC(=O)c2c(C)[nH]c3c(-c4cc(OC)c(F)cc4OCC4CC4)ncnc23)C1` (relative stereo) [Example E117, 4-[2-(Cyclopropylmethoxy)-4-fluoro-5-methoxyphenyl]-N-[(3S*,4S*)-4-hydroxy-1-propionylpiperidin-3-yl]-6-methyl-5H-pyrrolo[3,2-d]pyrimidine-7-carboxamide] is less than 1 nM; for `COCC(=O)N1CC[C@H](O)[C@@H](NC(=O)c2c(C)[nH]c3c(-c4cc(OC)c(F)cc4OCC4CC4)ncnc23)C1` (relative stereo) [Example E118, 4-[2-(cyclopropylmethoxy)-4-fluoro-5-methoxyphenyl]-N-[(3S*,4S*)-4-hydroxy-1-(methoxyacetyl)piperidin-3-yl]-6-methyl-5H-pyrrolo[3,2-d]pyrimidine-7-carboxamide] it is less than 1 nM; for `CC(=O)N1CC[C@@H](NC(=O)c2c(C)[nH]c3c(-c4cc(C)c(F)cc4OCC4CC4)ncnc23)[C@H](O)C1` (relative stereo) [Example E128, N-[(3R*,4R*)-1-Acetyl-3-hydroxypiperidin-4-yl]-4-[2-(cyclopropylmethoxy)-4-fluoro-5-methylphenyl]-6-methyl-5H-pyrrolo[3,2-d]pyrimidine-7-carboxamide] it is less than 1 nM.
For `CCC(=O)N1CC[C@@H](NC(=O)c2c(C)[nH]c3c(-c4cc(C)c(F)cc4OCC4CC4)ncnc23)[C@H](O)C1` (relative stereo) [Example E129, 4-[2-(cyclopropylmethoxy)-4-fluoro-5-methylphenyl]-N-[(3R*,4R*)-3-hydroxy-1-propanoylpiperidin-4-yl]-6-methyl-5H-pyrrolo[3,2-d]pyrimidine-7-carboxamide] the value was less than 1 nM; for `COCC(=O)N1CC[C@@H](NC(=O)c2c(C)[nH]c3c(-c4cc(C)c(F)cc4OCC4CC4)ncnc23)[C@H](O)C1` (relative stereo) [Example E130, 4-[2-(Cyclopropylmethoxy)-4-fluoro-5-methylphenyl]-N-[(3R*,4R*)-3-hydroxy-1-(methoxyacetyl)piperidin-4-yl]-6-methyl-5H-pyrrolo[3,2-d]pyrimidine-7-carboxamide], less than 1 nM.
Turning to `COc1cc(OCC2CC2)c(-c2ncnc3c(C(=O)N[C@@H]4CCN(C(C)=O)C[C@H]4O)c(C)[nH]c23)cc1F` (relative stereo) [Example E142, N-[(3R*,4R*)-1-Acetyl-3-hydroxypiperidin-4-yl]-4-[2-(cyclopropylmethoxy)-5-fluoro-4-methoxyphenyl]-6-methyl-5H-pyrrolo[3,2-d]pyrimidine-7-carboxamide], the IC50 was less than 1 nM.
Turning to `CCC(=O)N1CC[C@@H](NC(=O)c2c(C)[nH]c3c(-c4cc(F)c(OC)cc4OCC4CC4)ncnc23)[C@H](O)C1` (relative stereo) [Example E143, 4-[2-(Cyclopropylmethoxy)-5-fluoro-4-methoxyphenyl]-N-[(3R*,4R*)-3-hydroxy-1-propanoylpiperidin-4-yl]-6-methyl-5H-pyrrolo[3,2-d]pyrimidine-7-carboxamide], the IC50 is less than 1 nM.
Turning to `COCC(=O)N1CC[C@@H](NC(=O)c2c(C)[nH]c3c(-c4cc(F)c(OC)cc4OCC4CC4)ncnc23)[C@H](O)C1` (relative stereo) [Example E144, 4-[2-(Cyclopropylmethoxy)-5-fluoro-4-methoxyphenyl]-N-[(3R*,4R*)-3-hydroxy-1-(methoxyacetyl)piperidin-4-yl]-6-methyl-5H-pyrrolo[3,2-d]pyrimidine-7-carboxamide], the IC50 is less than 1 nM.
